# Results as given in article PMC9008879, “Inhibition of CYP3A-mediated Midazolam Metabolism by Kaempferia Parviflora” (Food Safety, 2022).
# How the values were obtained:
# CYP3A4 = test system: CYP3A4; parameters: method as in PMID 17709371; details: HLM and recombinant microsomes; cited from earlier work
# CYP3A [1] = test system: CYP3A; parameters: method as in PMID 29550915; details: mice, 5,7-DMF for ten days; cited from earlier work
# CYP3A [2] = test: Pre-incubation study (time-dependent / mechanism-based inhibition) of MDZ 1'-OH activity in human liver microsomes; format: in vitro ADME; details: for Change of MDZ 1'-OH activity after pre-incubation: HLM, pre-incubation 0-30 min with or without NADPH, KP extract 120 µg/ml, 5,7-DMF 30 µM, 3,5,7,3',4'-PMF 20 µM; for KI (inactivation) / kinact / kinact/KI: human, human liver microsomes, probe midazolam (MDZ) 10 µM, 1'-hydroxylation, HLM + NADPH, 10-fold dilution; for KI (inactivation): pre-incubation 5-30 min, read-out: KI (inhibitor concentration causing half-maximal inactivation); for kinact / kinact/KI: pre-incubation; for kinact: read-out: kinact (maximal inactivation rate constant) (converted); for kinact/KI: read-out: kinact/KI (efficiency of inactivation) (converted)
# Method: Pre-incubation studies were performed to determine whether the metabolic intermediates produced by KP ingredients cause an MBI that inactivates CYP3A. KP extract (120 µg/ml), 5,7-DMF (30 µM), or 3,5,7,3’,4’-PMF (20 µM) was pre-incubated with HLM at 37°C for 10, 20, or 30 min, in the presence or absence of a NADPH-generating system. After the pre-incubation step, MDZ was added, and MDZ 1’-OH activity was assayed as described above.
# In addition, another assay was designed to minimize the direct inhibition of CYP3A by KP ingredients by diluting the contents of the inactivation mixture 10-fold. As a primary incubation mixture, KP extract (30-120 µg/ml), 5,7-DMF (6-30 µM), or 3,5,7,3’,4’-PMF (5-20 µM) were pre-incubated in the presence of HLM and a NADPH-generating system at 37°C. Pre-incubation times were 5, 10, 15, or 20 min for KP extract, and 5, 10, 20, or 30 min for 5,7-DMF and 3,5,7,3’,4’-PMF. At determined time points, an aliquot of 50 µL of the primary reaction mixture was moved to 450 µL of the secondary incubation mixture containing 10 µM MDZ, and further incubated for 5 min. The oxidation of MDZ was analyzed as described above.
# The decrease in the natural logarithm of the % residual MDZ 1’-OH activity against pre-incubation time was plotted for each inhibitor concentration, and the apparent inactivation rate constant (Kobs) values were described as the negative slopes of the lines. The maximal inactivation rate constant (kinact) and the inhibitor concentration causing half-maximal inactivation (KI) were estimated by double-reciprocal plot of the Kobs against the inhibitor concentration. The efficiency of inactivation was calculated as the ratio of kinact to KI.
# CYP3A [3] = test: Direct inhibition of CYP3A-mediated MDZ 1'-hydroxylation activity in human liver microsomes; format: in vitro ADME; details: HLM, 10 µM MDZ; 5,7-DMF 0.03-30 µM, 3,5,7,3',4'-PMF 0.02-20 µM, no pre-incubation
# Method: An in vitro study was carried out to investigate the inhibitory effects of KP extract, 5,7-DMF, and 3,5,7,3’,4’-PMF on CYP3A-mediated MDZ 1’-hydroxylation (MDZ 1’-OH) activity.
# The reaction mixtures, each with a total volume of 200 µL, consisting of 100 µg pooled HLM, 10 µM MDZ, and a nicotinamide adenine dinucleotide phosphate (NADPH)-generating system (1 mM NADPH, 8 mM glucose 6-phosphate, and 0.5U glucose 6-phosphate dehydrogenase) in 80 mM phosphate buffer (pH 7.4), were incubated at 37°C for 5 min in the presence of KP extract (40-80 µg/ml), 5,7-DMF (0.03-30 µM), or 3,5,7,3’,4’-PMF (0.02-20 µM). […] After centrifugation at 20,800 × g for 10 min at 4°C, the supernatant was injected into an HPLC apparatus equipped with a CAPCELLPAK C18 SG120 column (4.6 mm × 250 mm, Shiseido) and 1’-hydroxymidazolam was analyzed according to a previous report[20]^,[21]^). Control activity was determined under the same conditions with a reaction mixture containing water, 1% methanol, or 1% acetonitrile instead of KP extract, 5,7-DMF, or 3,5,7,3’,4’-PMF. Results were expressed as a percentage of each control activity. The inhibition mode and inhibition constant (Ki) values of KP extract on MDZ 1’-OH activity were calculated using nonlinear regression analysis using GraphPad Prism 7.03 (GraphPad Software Inc., La Jolla, CA, USA).
compound,measurement,setting,value
"COc1cc(OC)c2c(=O)cc(-c3ccccc3)oc2c1 [5,7-DMF, 5,7-dimethoxyflavone]",Metabolizing CYP enzymes,CYP3A4,"not metabolized by CYP3A4, but by CYP1A1 and CYP1A2"
same,AUC of MDZ,CYP3A [1],increased
same,Elimination half-life (t1/2) of MDZ,CYP3A [1],increased
same,Hepatic CYP3A expression,CYP3A [1],decreased
same,Change of MDZ 1'-OH activity after pre-incubation,CYP3A [2],time- and NADPH-dependent decrease
same,KI (inactivation),CYP3A [2],10.7 µM
same,kinact,CYP3A [2],0.000433 s⁻¹
same,kinact/KI,CYP3A [2],40 M⁻¹ s⁻¹
same,Direct inhibition of MDZ 1'-OH activity,CYP3A [3],did not inhibit
"COc1cc(OC)c2c(=O)c(OC)c(-c3ccc(OC)c(OC)c3)oc2c1 [3,5,7,3’,4’-PMF, 3,5,7,3’,4’-pentamethoxyflavone]",Change of MDZ 1'-OH activity after pre-incubation,CYP3A [2],time- and NADPH-dependent decrease
same,KI (inactivation),CYP3A [2],25.5 µM
same,kinact,CYP3A [2],2.67e-05 s⁻¹
same,kinact/KI,CYP3A [2],1.05 M⁻¹ s⁻¹
same,Direct inhibition of MDZ 1'-OH activity,CYP3A [3],did not inhibit
